Source: paper PMC3494675, “Structure-Function Analysis of the Glioma Targeting NFL-TBS.40-63 Peptide Corresponding to the Tubulin-Binding Site on the Light Neurofilament Subunit” (PLoS ONE, 2012)
Peptide text beside a SMILES is read from it. * marks the point of attachment. Biotin = O=C1N[C@H]2[C@H](CS[C@H]2CCCCC(=O)*)N1

What was measured:
[1] = tested on: T98G human glioblastoma cells; assay: Peptide incorporation into T98G cells (immunocytochemistry, cell counting); assay type: cell-based; conditions: T98G cells, 10 µM biotinylated peptide, 6 hours; Alexa-labeled avidin/streptavidin fluorescence microscopy; minimum 200 cells per experiment; mean ± S.E.M., triplicated
Method: (§1) Cells containing the biotinylated peptide were detected using Alexa-labeled avidin (green fluorescence) and those displaying a normal or a destroyed MT network were detected with an anti-tubulin antibody (red fluorescence) ( Figure 1A-B ). Then, we counted a minimum of 200 cells per slide containing or not the peptide, and with a normal or destroyed microtubule network ( Figure 1C ). As illustrated on Figure 1A glioblastoma cells contain a rich MT network. […] Cells were plated on cover slips and cultured in media containing biotinylated peptides (10 μM) for 6 hours. […] The cells were then incubated during 10 min in a 0.5% triton X-100 permeabilization solution, and washed 3 times in PBS. Next, they were incubated in a blocking solution (PBS 5% BSA) for 15 min, then incubated with mouse anti-ß-tubulin antibody (Sigma) 1/200 overnight. Tubulin and biotinylated peptides were localized using respectively Alexa 568 nm anti-mouse antibody and streptavidin Alexa 488 nm (Molecular Probes) 1/200 for 1 hour, followed by washing in PBS. […] Sigma) for 5 min, washed twice with PBS, then cover slips were mounted with an antifading solution. Observations were performed with an Olympus confocal microscope (BX50) using Fluoview.3.1. Software or a Leica DMI6000 inverted microscope and analyzed with Metamorph 7.1.7.0. software. We counted cells containing the peptide and cells displaying a destroyed MT network. Experiments were repeated at least three times, and a minimum of 200 cells was scored during each experiment.

[2] = tested on: T98G human glioblastoma cells; assay: Disintegration of the microtubule network in T98G cells (anti-tubulin immunostaining, cell counting); assay type: cell-based; conditions: T98G cells, 10 µM biotinylated peptide, 6 hours; anti-tubulin immunostaining; minimum 200 cells per experiment; mean ± S.E.M., triplicated
Method: as §1

Row | Compound | Peptide incorporation (% of cells) [1] | Disintegration of MT (% of cells) [2]
1 | CC(C)C[C@H](NC(=O)[C@H](CO)NC(=O)[C@H](CO)NC(=O)[C@H](CO)NC(=O)[C@@H](NC(=O)[C@@H]1CCCN1C(=O)[C@H](C)NC(=O)[C@H](CO)NC(=O)[C@H](Cc1ccc(O)cc1)NC(=O)[C@H](CO)NC(=O)[C@H](CO)NC(=O)[C@H](Cc1ccc(O)cc1)NC(=O)CCCC[C@@H]1SC[C@@H]2NC(=O)N[C@@H]21)C(C)C)C(=O)N[C@@H](CO)C(=O)N[C@H](C(=O)N[C@@H](CCCNC(=N)N)C(=O)N[C@@H](CCCNC(=N)N)C(=O)N[C@@H](CO)C(=O)N[C@@H](Cc1ccc(O)cc1)C(=O)N[C@@H](CO)C(=O)N[C@@H](CO)C(=O)N[C@@H](CO)C(=O)N[C@@H](CO)C(=O)NCC(=O)N[C@@H](CO)C(N)=O)C(C)C [Ala6Ala] (Biotin-YSSYSAPVSSSLSVRRSYSSSSGS-NH2) | 50.3±4.6 % of cells | 48.1±6.6 % of cells
2 | CC(C)C[C@H](NC(=O)[C@H](CO)NC(=O)[C@H](CO)NC(=O)[C@H](CO)NC(=O)[C@@H](NC(=O)[C@@H]1CCCN1C(=O)[C@H](C)NC(=O)[C@H](CO)NC(=O)[C@H](Cc1ccc(O)cc1)NC(=O)[C@H](CO)NC(=O)[C@H](CO)NC(=O)[C@H](Cc1ccc(O)cc1)NC(=O)CCCC[C@@H]1SC[C@@H]2NC(=O)N[C@@H]21)C(C)C)C(=O)N[C@@H](CO)C(=O)N[C@H](C(=O)N[C@@H](C)C(=O)N[C@@H](CCCNC(=N)N)C(=O)N[C@@H](CO)C(=O)N[C@@H](Cc1ccc(O)cc1)C(=O)N[C@@H](CO)C(=O)N[C@@H](CO)C(=O)N[C@@H](CO)C(=O)N[C@@H](CO)C(=O)NCC(=O)N[C@@H](CO)C(N)=O)C(C)C [Arg15Ala] (Biotin-YSSYSAPVSSSLSVARSYSSSSGS-NH2) | 18.1±1.3 % of cells | 25.5±6.3 % of cells
3 | CC(C)C[C@H](NC(=O)[C@H](CO)NC(=O)[C@H](CO)NC(=O)[C@H](CO)NC(=O)[C@@H](NC(=O)[C@@H]1CCCN1C(=O)[C@H](C)NC(=O)[C@H](CO)NC(=O)[C@H](Cc1ccc(O)cc1)NC(=O)[C@H](CO)NC(=O)[C@H](CO)NC(=O)[C@H](Cc1ccc(O)cc1)NC(=O)CCCC[C@@H]1SC[C@@H]2NC(=O)N[C@@H]21)C(C)C)C(=O)N[C@@H](CO)C(=O)N[C@H](C(=O)N[C@@H](CCCNC(=N)N)C(=O)N[C@@H](C)C(=O)N[C@@H](CO)C(=O)N[C@@H](Cc1ccc(O)cc1)C(=O)N[C@@H](CO)C(=O)N[C@@H](CO)C(=O)N[C@@H](CO)C(=O)N[C@@H](CO)C(=O)NCC(=O)N[C@@H](CO)C(N)=O)C(C)C [Arg16Ala] (Biotin-YSSYSAPVSSSLSVRASYSSSSGS-NH2) | 0 % of cells | 15.6±3.0 % of cells
4 | CC(C)C[C@H](NC(=O)[C@H](CO)NC(=O)[C@H](CO)NC(=O)[C@H](CO)NC(=O)[C@@H](NC(=O)[C@@H]1CCCN1C(=O)[C@H](C)NC(=O)[C@H](CO)NC(=O)[C@H](Cc1ccc(O)cc1)NC(=O)[C@H](CO)NC(=O)[C@H](CO)NC(=O)[C@H](Cc1ccc(O)cc1)NC(=O)CCCC[C@@H]1SC[C@@H]2NC(=O)N[C@@H]21)C(C)C)C(=O)N[C@@H](CO)C(=O)N[C@H](C(=O)N[C@@H](CCCNC(=N)N)C(=O)N[C@@H](CCCCN)C(=O)N[C@@H](CO)C(=O)N[C@@H](Cc1ccc(O)cc1)C(=O)N[C@@H](CO)C(=O)N[C@@H](CO)C(=O)N[C@@H](CO)C(=O)N[C@@H](CO)C(=O)NCC(=O)N[C@@H](CO)C(N)=O)C(C)C [Arg16Lys] (Biotin-YSSYSAPVSSSLSVRKSYSSSSGS-NH2) | 32.9±1.3 % of cells | 36.9±0.9 % of cells
